Results published in patent publication US12590864B2, “Wind tunnel for assessment of insecticides” (EAST CAROLINA UNIVERSITY, priority 2023, dated 2026).

Experiments:
Cx. pipiens complex = conditions: five field populations; cited from earlier work
Aedes albopictus = experiment: CDC bottle bioassay (AI residue); assay type: in vivo; conditions: 30 min DT, Ae. albopictus; for mortality at the DT: 8 μg/mL residue
Experimental: (§1) Separate mosquitoes from the same populations used in wind tunnel experiments were also used in bottle bioassays, except for Ae. albopictus, F1, Craven County, NC that were used in wind tunnel but not bottle bioassays due to low sample size. Female mosquitoes (4-5 d old) were aspirated from colony cages, transferred to 500 mL glass Wheaton bottles (N=11-20 mosquitoes in each of three to four replicate bottles), and exposed constantly to technical grade permethrin AI residue (8 μg/mL) (Chem Service, Westchester, Pennsylvania) for a 120 min period using established CDC bottle bioassay methods and mortality was monitored/recorded at 0, 15, 30, 60, and 120 min (CDC 2013, 2019; Richards et al. 2017ab, 2019). Bottle bioassay control groups were transferred to clean bottles following the same established methods (CDC 2013, 2019; Richards et al. 2017ab, 2019). Diagnostic dose and diagnostic time (DT) were determined using susceptible populations of Ae. albopictus and Cx. quinquefasciatus (data not shown).
(§2) Female mosquitoes (4-5 d old) were aspirated from a separate colony cages, transferred to 500 mL glass Wheaton bottles, and exposed to AI residue using established CDC bottle bioassay methods and mortality was monitored/recorded at 15, 30, 60, and 120 min (FIG. 8). Bottle bioassay control groups were transferred to clean bottles following established methods (CDC 2013, 2019). At the 30 min DT for permethrin, Ae. albopictus, F48, Orleans Parish, Ae. albopictus, F0, New Hanover County, and Cx. pipiens quinquefasciatus, F219, Johannesburg were classified as susceptible (100% mortality at the DT); however, Cx. pipiens/quinquefasciatus, F1, New Hanover County (69% mortality) and Cx. pipiens/quinquefasciatus, F1, Pitt County County (57% mortality) were classified as resistant. FIG. 9 is a bar graph of the mortality of types of mosquitoes in the wind tunnel during bioassay exposure to permethrin.

[1] = test system: Culex pipiens/quinquefasciatus; experiment: CDC bottle bioassay (AI residue); assay type: in vivo; conditions: 30 min DT; for mortality at the DT: 8 μg/mL residue
Experimental: as §1, §2

[2] = Cx. pipiens quinquefasciatus, F219, Johannesburg
[3] = Cx. pipiens/quinquefasciatus, F1, New Hanover County
[4] = Cx. pipiens/quinquefasciatus, F1, Pitt County

SMILES | resistance classification (Cx. pipiens complex) | mortality at the DT (Aedes albopictus; F0, New Hanover County) | mortality at the DT (Aedes albopictus; F48, Orleans Parish) | resistance classification (Aedes albopictus; F0, New Hanover County) | resistance classification (Aedes albopictus; F48, Orleans Parish) | mortality at the DT [1, 2] | mortality at the DT [1, 3] | mortality at the DT [1, 4] | resistance classification [1, 2] | resistance classification [1, 3] | resistance classification [1, 4]
CC(C)=CC1C(C(=O)OCc2cccc(Oc3ccccc3)c2)C1(C)C (stereo not drawn) [Sumethrin®, d-phenothrin] | resistant |  |  |  |  |  |  |  |  |  | 
CC1(C)C(C=C(Cl)Cl)C1C(=O)OCc1cccc(Oc2ccccc2)c1 (centres unmarked) [permethrin] |  | 100% | 100% | susceptible | susceptible | 100% | 69% | 57% | susceptible | resistant | resistant
